The target in assay [1] is Cannabinoid receptor 2 (Mus musculus) (UniProt P47936). Kind of assay: Inverse agonist activity at mouse CB2 receptor expressed in HEK293 cells assessed as inhibition of forskolin-mediated cAMP accumulation after 5 mins by fluorescence assay relative to control. The assay is classed as functional, cell-based.
For assay [2], the target named is T1, Cannabinoid receptor 2 (Mus musculus, UniProt P47936). In words: Inverse agonist activity at C-terminally prolink-tagged mouse CB2 receptor expressed in CHOK1 cells harboring beta-galactosidase enzyme fused beta-arrestin assessed as increase in beta-arrestin recruitment after 90 mins by chemiluminescent assay. In kind it is cell-based.
In assay [3] the target is T1, Cannabinoid receptor 2. In words: Inverse agonist activity at mouse CB2 receptor expressed in HEK293 cells assessed as inhibition of forskolin-mediated cAMP accumulation after 5 mins by fluorescence assay. The assay is classed as functional, cell-based.
Assay [4] addresses Cannabinoid receptor 2 (Mus musculus) (UniProt P47936). In words: Inverse agonist activity at C-terminally prolink-tagged mouse CB2 receptor expressed in CHOK1 cells harboring beta-galactosidase enzyme fused beta-arrestin assessed as increase in beta-arrestin recruitment after 90 mins by chemiluminescent assay relative to control. The assay is classed as cell-based.
The target is the same in assay [5]. Kind of assay: Ratio of EC50 for C-terminally prolink-tagged mouse CB2 receptor expressed in CHOK1 cells harboring beta-galactosidase enzyme fused beta-arrestin assessed as increase in beta-arrestin recruitment to EC50 for mouse CB2 receptor expressed in HEK293 cells assessed as inhibition of forskolin-mediated cAMP accumulation. In kind it is functional, cell-based.

The target of assay [6] is T2, Adenosine receptor A3 (Homo sapiens) (UniProt P0DMS8).
T2 sequence (whole entry): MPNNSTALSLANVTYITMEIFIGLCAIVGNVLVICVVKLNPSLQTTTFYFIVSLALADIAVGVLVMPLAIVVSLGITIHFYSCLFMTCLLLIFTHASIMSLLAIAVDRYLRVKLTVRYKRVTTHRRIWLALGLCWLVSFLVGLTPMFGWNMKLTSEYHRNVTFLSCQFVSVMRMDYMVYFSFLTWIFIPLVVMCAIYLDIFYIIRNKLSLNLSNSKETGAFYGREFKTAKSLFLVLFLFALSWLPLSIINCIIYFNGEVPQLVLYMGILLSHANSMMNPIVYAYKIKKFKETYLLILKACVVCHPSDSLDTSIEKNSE
Kind of assay: Ratio of pEC50 EC50 for agonist activity at human adenosine A3 receptor expressed in FlpIn-CHO cells assessed as inhibition of forskolin-mediated cAMP accumulation to pEC50 for agonist activity at human adenosine A3 receptor expressed in FlpIn-CHO cells assessed as increase in ERK1/2 phosphorylation. In kind it is functional, cell-based.

Assay [7] concerns the target T2, Adenosine receptor A3 (Homo sapiens). In words: Agonist activity at human adenosine A3 receptor expressed in FlpIn-CHO cells assessed as increase in ERK1/2 phosphorylation after 5 mins by alphascreen assay relative to control. The assay is classed as cell-based.
For assay [8] the target is unchanged. Kind of assay: Agonist activity at adenosine A3 receptor (unknown origin) expressed in serum starved CHO cells assessed as increase in cell survival after 24 hrs by propidium iodide staining-based assay relative to control.
Assay [9] shares this target. Kind of assay: Agonist activity at human adenosine A3 receptor expressed in FlpIn-CHO cells assessed as inhibition of forskolin-mediated cAMP accumulation preincubated for 10 mins followed by forskolin addition measured after 30 mins by alphascreen assay relative to control. In kind it is functional, cell-based.
Assay [10] shares this target. Kind of assay: Ratio of pEC50 for agonist activity at human adenosine A3 receptor expressed in FlpIn-CHO cells assessed as inhibition of forskolin-mediated cAMP accumulation to pEC50 for agonist activity at adenosine A3 receptor (unknown origin) expressed in serum starved CHO cells assessed as increase in cell survival after 24 hrs by propidium iodide staining-based assay. In kind it is functional.

In assay [11] the target is T3, Histamine H4 receptor (Homo sapiens, UniProt Q9H3N8). Kind of assay: Agonist activity at histamine H4 receptor (unknown origin) expressed in HEK293T cells harboring CRE-luciferase after 6 hrs by luciferase reporter gene assay relative to control. The assay is classed as functional, cell-based.
Assay [12] concerns the target T3, Histamine H4 receptor. In words: Agonist activity at histamine H4 receptor (unknown origin) expressed in human U2OS cells increase in beta-arrestin2 recruitment after 2 hrs by luminescence assay relative to control. In kind it is cell-based.
The target in assay [13] is T3, Histamine H4 receptor. In words: Agonist activity at histamine H4 receptor (unknown origin) expressed in human U2OS cells increase in beta-arrestin2 recruitment after 2 hrs by luminescence assay. The assay is classed as cell-based.
Assay [14] deals with T3, Histamine H4 receptor. In words: Agonist activity at histamine H4 receptor (unknown origin) expressed in HEK293T cells harboring CRE-luciferase after 6 hrs by luciferase reporter gene assay. In kind it is functional, cell-based.
Assay [15] addresses T4, Adenosine receptor A3 (Homo sapiens, UniProt P0DMS8).
T4 sequence (P0DMS8 whole entry): T2 sequence (whole entry)
In words: Agonist activity at human adenosine A3 receptor expressed in FlpIn-CHO cells assessed as inhibition of forskolin-mediated cAMP accumulation preincubated for 10 mins followed by forskolin addition measured after 30 mins by alphascreen assay. The assay is classed as functional, cell-based.

Assay [16] addresses T4, Adenosine receptor A3. Kind of assay: Agonist activity at human adenosine A3 receptor expressed in FlpIn-CHO cells assessed as increase in ERK1/2 phosphorylation after 5 mins by alphascreen assay. In kind it is cell-based.
For assay [17], the target named is T5, D(1A) dopamine receptor (Homo sapiens, UniProt P21728). In words: Agonist activity at human dopamine D1 receptor expressed in CHOK1 cells assessed as […] cAMP accumulation after 60 mins by luminescence assay. The assay is classed as functional, cell-based.
In assay [18] the target is T5, D(1A) dopamine receptor. Kind of assay: Agonist activity at human dopamine D1 receptor expressed in CHOK1 cells assessed as assessed as increase in beta-arrestin-2 recruitment after 60 mins by luminescence assay. In kind it is cell-based.
Assay [19] concerns the target T6, D(2) dopamine receptor (Homo sapiens, UniProt P14416). Kind of assay: Agonist activity at dopamine D2long receptor (unknown origin) assessed as […] in cAMP accumulation. The assay is classed as functional.
Assay [20] deals with T6, D(2) dopamine receptor. Kind of assay: Antagonist activity at dopamine D2long receptor (unknown origin) assessed as inhibition of agonist-induced beta-arrestin recruitment.
The target in assay [21] is T6, D(2) dopamine receptor. In words: Agonist activity at dopamine D2long receptor (unknown origin) assessed as increase in beta-arrestin recruitment.
For assay [22], the target named is T6, D(2) dopamine receptor. In words: Antagonist activity at dopamine D2long receptor (unknown origin) assessed as inhibition of agonist-induced cAMP accumulation. In kind it is functional.
Assay [23] deals with T6, D(2) dopamine receptor. In words: Agonist activity at dopamine D2long receptor (unknown origin) assessed as increase in beta-arrestin recruitment relative to control.
Assay [24] addresses T6, D(2) dopamine receptor. In words: Agonist activity at dopamine D2long receptor (unknown origin) assessed as […] in cAMP accumulation relative to control. In kind it is functional.

This note sets out measurements from ChEMBL document CHEMBL4371007, “Biased Ligands of G Protein-Coupled Receptors (GPCRs): Structure-Functional Selectivity Relationships (SFSRs) and Therapeutic Potential” (J Med Chem, 2018).

Chain of Cannabinoid receptor 2 (Mus musculus) (P47936 whole entry, the tested form may be a part): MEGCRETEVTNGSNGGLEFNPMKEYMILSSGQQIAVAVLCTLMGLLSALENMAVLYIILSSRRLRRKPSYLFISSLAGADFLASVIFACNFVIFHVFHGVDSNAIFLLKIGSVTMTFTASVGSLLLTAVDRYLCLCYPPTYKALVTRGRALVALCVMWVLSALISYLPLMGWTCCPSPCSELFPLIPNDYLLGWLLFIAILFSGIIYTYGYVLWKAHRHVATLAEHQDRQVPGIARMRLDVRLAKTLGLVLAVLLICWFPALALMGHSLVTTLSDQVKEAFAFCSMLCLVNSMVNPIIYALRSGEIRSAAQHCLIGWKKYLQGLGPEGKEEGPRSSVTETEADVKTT
T1 sequence (P47936 whole entry, the tested form may be a part): as above
T3 sequence (Q9H3N8 whole entry): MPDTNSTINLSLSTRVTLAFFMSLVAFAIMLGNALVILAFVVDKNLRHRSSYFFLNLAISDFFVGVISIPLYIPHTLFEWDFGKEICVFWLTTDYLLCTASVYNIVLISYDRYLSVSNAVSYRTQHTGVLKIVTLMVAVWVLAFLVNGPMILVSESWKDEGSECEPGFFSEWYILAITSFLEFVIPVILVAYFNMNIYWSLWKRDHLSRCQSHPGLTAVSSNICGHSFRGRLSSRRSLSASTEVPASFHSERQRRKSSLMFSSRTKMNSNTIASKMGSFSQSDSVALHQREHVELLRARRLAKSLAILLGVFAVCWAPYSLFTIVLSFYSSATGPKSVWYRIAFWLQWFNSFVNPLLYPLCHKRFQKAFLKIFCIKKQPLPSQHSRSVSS
T6 sequence (P14416 whole entry): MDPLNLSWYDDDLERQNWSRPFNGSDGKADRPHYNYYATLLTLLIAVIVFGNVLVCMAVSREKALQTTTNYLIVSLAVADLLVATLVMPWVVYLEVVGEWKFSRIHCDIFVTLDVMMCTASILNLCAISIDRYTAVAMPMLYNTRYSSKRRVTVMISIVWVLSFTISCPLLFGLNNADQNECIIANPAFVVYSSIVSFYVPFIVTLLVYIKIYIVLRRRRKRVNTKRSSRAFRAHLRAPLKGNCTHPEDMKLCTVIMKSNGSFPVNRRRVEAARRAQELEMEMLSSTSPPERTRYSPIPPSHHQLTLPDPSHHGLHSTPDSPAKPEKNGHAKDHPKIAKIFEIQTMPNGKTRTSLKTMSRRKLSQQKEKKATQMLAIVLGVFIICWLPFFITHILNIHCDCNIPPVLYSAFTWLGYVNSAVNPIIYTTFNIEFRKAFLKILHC
T5 sequence (P21728 whole entry): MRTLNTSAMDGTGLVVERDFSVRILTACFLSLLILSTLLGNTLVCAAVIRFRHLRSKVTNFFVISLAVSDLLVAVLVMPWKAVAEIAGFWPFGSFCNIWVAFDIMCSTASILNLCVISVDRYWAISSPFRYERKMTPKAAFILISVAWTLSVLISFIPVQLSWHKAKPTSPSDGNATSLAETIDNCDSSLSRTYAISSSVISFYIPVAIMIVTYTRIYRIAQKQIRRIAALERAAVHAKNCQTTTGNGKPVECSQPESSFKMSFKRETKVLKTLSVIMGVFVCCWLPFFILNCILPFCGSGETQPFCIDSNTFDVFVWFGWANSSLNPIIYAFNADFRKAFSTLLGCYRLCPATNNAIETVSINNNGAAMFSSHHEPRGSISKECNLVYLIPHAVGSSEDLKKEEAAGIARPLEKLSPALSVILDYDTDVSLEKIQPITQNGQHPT

Turning to `O=C(c1cn(CCCCCF)c2ccccc12)C12CC3CC(CC(C3)C1)C2`, the Emax in [1] worked out at 31%; in assay [4], 62%. Besides, the results for the EC50 on Cannabinoid receptor 2 [2] and at Cannabinoid receptor 2 [3] were 1.5 nM and 52 nM, respectively. Besides, in assay [5], the Ratio EC50 turned out to be 0.2.
Regarding `CNC(=O)[C@@]12C[C@@H]1[C@@H](n1cnc3c(N(C)c4cccc(Cl)c4)nc(Cl)nc31)[C@H](O)[C@@H]2O`, the Ratio EC50 in assay [6] worked out at 1.4. Moreover, the Emax was 94% in assay [7], 85% in assay [8] and 70% in assay [9]. Besides, the Ratio in [10] stood at 3.1.
For the compound `N=C(NCc1cccc(Cl)c1)SCCCc1c[nH]cn1`, the Emax at Histamine H4 receptor [11] is 92%; at Histamine H4 receptor [12], 37%. Also, the figures for the EC50 on Histamine H4 receptor [13] and at Histamine H4 receptor [14] were 39.8 nM and 6.31 nM, respectively.
On to `CNC(=O)[C@@]12C[C@@H]1[C@@H](n1cnc3c(NCc4cccc(Cl)c4)nc(C#Cc4ccccc4)nc31)[C@H](O)[C@@H]2O`, for which the Ratio EC50 in assay [6] is 2.1. The figures for the Emax in [7], in assay [8] and in [9] were 88%, 83% and 78%, respectively. Further, the EC50 on Adenosine receptor A3 [15] was 0.794 nM; on Adenosine receptor A3 [16], 0.501 nM. Moreover, in [10], the Ratio stood at 8.1.
For the compound `CNC(=O)[C@@]12C[C@@H]1[C@@H](n1cnc3c(NCc4cccc(Cl)c4)nc(C#Cc4ccc(F)c(F)c4)nc31)[C@H](O)[C@@H]2O`, the figures for the Emax in assay [7], in [8] and in assay [9] were 106%, 81% and 89%, respectively.
`CN1CCc2c(cc(O)c(O)c2Cl)[C@@H](c2ccccc2)C1`: the concentration for a half-maximal effect (EC50) is 0.3 nM on D(1A) dopamine receptor [17] and more than 10000 nM on D(1A) dopamine receptor [18].
For the compound `COc1ccc(C(=O)c2c(C)n(CCN3CCOCC3)c3cc(I)ccc23)cc1`, the Emax in [1] was -19%; in [4], 43%. The concentration giving a half-maximal response (EC50) is 9 nM on Cannabinoid receptor 2 [2] and 25 nM on Cannabinoid receptor 2 [3].
As to `N=C(NCc1ccccc1Cl)SCCCc1c[nH]cn1`, at Histamine H4 receptor [12], the Emax came to 31%. The compound further gave a 50% effective concentration (EC50) at Histamine H4 receptor [13] of 15.8 nM.
On to `Cc1c(C(=O)NN2CCCCC2)nn(-c2ccc(Cl)cc2Cl)c1-c1ccc(Cl)cc1`, for which the Emax in assay [1] is -11%; in assay [4], -43%.
As for `CCCCCCC(C)(C)c1cc(OC)c([C@@H]2C=C(CO)[C@H]3C[C@@H]2C3(C)C)c(OC)c1`, the values for the Emax in assay [1] and in assay [4] were 60% and 3%, respectively. The EC50 on Cannabinoid receptor 2 [3] amounted to 30 nM. Besides, the Ratio EC50 in assay [5] is 39.8.
As to `CN1CCCCC1Cn1cc(C(=O)C23CC4CC(CC(C4)C2)C3)c2ccccc21` (stereo unspecified), the figures for the Emax in assay [1] and in assay [4] were 24% and 52%, respectively. For the same compound, the EC50 came to 71 nM on Cannabinoid receptor 2 [2] and 15 nM on Cannabinoid receptor 2 [3]. Also, the Ratio EC50 in assay [5] was found to be 0.079.
Regarding `CNC(=O)[C@@]12C[C@@H]1[C@@H](n1cnc3c(NCc4cccc(Cl)c4)nc(C#Cc4cc5cccc6ccc7cccc4c7c65)nc31)[C@H](O)[C@@H]2O`, in assay [6], the Ratio EC50 turned out to be 3. In addition, the Emax in [7] stood at 112%; in [8] it was 80%; in [9], 78%. In addition, the EC50 was 316 nM at Adenosine receptor A3 [15] and 1000 nM on Adenosine receptor A3 [16]. The Ratio in assay [10] was found to be 43.
Take `CC1(Oc2ccc(Cl)cc2)CCN(CCOc2ccccc2)CC1`: the EC50 was 10 nM on D(2) dopamine receptor [19], more than 30000 nM at D(2) dopamine receptor [20], 120 nM on D(2) dopamine receptor [21] and more than 30000 nM on D(2) dopamine receptor [22]. Also, the values for the Emax on D(2) dopamine receptor [23] and on D(2) dopamine receptor [24] were 75% and 100%, respectively.
